EP0186452A2, “Organosilicon compounds process for their production and pharmaceutical compositions thereof” (SANWA KAGAKU KENKYUSHO CO., LTD., priority 1984, dated 1986)

Experiments:
[1] = Acute toxicity, oral dosage to mice, LD50; conditions: mouse, in vivo, single dose suspended in 0.1% P-1570, ICR female mice, observed 21 days
From the text: Each test compound suspended in 0.1% P-1570 was orally and forcedly dosed through a gastric probe to ICR female mice (21 - 22g, age of about 5 weeks). An identification number was given to each mouse, and weighing and observation on general behaviour were done just before the dosage and each day after the same. Each dead mouse was subjected without delay to an autopsy to check the same, more particularly in detail on enterona. All living mice were killed at the 21st day from the dosage to carry out an autopsy for checking the same, more particularly on the entrails.
An LD50 was calculated in accordance with Leed.and Munch's method.

colon-38 carcinoma = assay: Anti-tumor action to colon-38 carcinoma transplanted under skin of mice; type: in vivo, BDF1 female mice; conditions: 5th and 9th day, tumor weight at 28th day vs non-treated control; for inhibition in vivo at 338 mg/kg: 338 mg/kg/day x 3, oral at 1st; for inhibition in vivo at 323 mg/kg: 323 mg/kg/day x 3, oral at 1st
Description: 0.02 ml of 10(W/V) cell suspension prepared from a solid cancer cell (colon-38 carcinoma) was transplanted under skin of BDF1 female mice (20 - 21g, age of about 5 weeks), and each test compound was orally dosed at lst, 5th and 9th day after the transplantation. major and minor axes of the forming cancerous tumor were measured at llth, 14th, 18th, 21st, 25th and 28th day after the transplantation to calcuate the volume ofthe cancerous tumor in accordance with the equation: [formula] • wherein L: major axis (mm) • W: minor axis (mm)
At 28th day from the transplantation, the mice were killed and each of the cancerous tumors was enucleated to measure its weight and to determine an inhibition ratio in comparison with that in a non-treated control group.

B-16 melanoma = assay: Anti-tumor action to B-16 melanoma transplanted under skin of mice; type: in vivo, BDF1 female mice; conditions: Mus musculus, B16, 504 h, 5th and 9th day, tumor weight at 21st day, read-out: Inhibition Ratio (%); for inhibition in vivo at 250 mg/kg: 250 mg/kg/day x 3, oral at 1st; for inhibition in vivo at 500 mg/kg: 500 mg/kg/day x 3, oral at 1st; for inhibition in vivo at 125 mg/kg: 125 mg/kg/day x 3, oral at 1st
From the text: A cancer cell of B-16 melanoma (1 x 10^5 cells) was transplanted under skin of BDF1 female mice (age of about 5 weeks), and each of testing compounds was orally dosed at lst, 5th and 9th day after the transplantation. At 21st day after the transplantation, the mice were killed to measure a weight of the formed cancerous tumor and to finally determine an inhibition ratio due to the dosage of the test compound.

[2] = Mus musculus, 672 h, read-out: Inhibition Ratio (%)

For `CC(C)(C)[Si](C)(C)CCCSCCNC(=O)n1cc(F)c(=O)[nH]c1=O` [compound 7, 1-{2-{[3-(Dimethyl-t-butylsilyl]propyl)thio}-ethylcarbamoyl}-5-fluorouracil], the LD50 at 504 h [1] was 1380 mg/kg, the inhibition in vivo at 311 mg/kg (colon-38 carcinoma; Mus musculus, 672 h, 311 mg/kg/day x 3, oral at 1st, read-out: Inhibition Ratio (%)) was 81% and the inhibition in vivo at 250 mg/kg (B-16 melanoma) was 43.1%.
Work on `CC(C)[Si](C)(C)CCSCCCN` [Example 5, 3-[[2-(Isopropyldimethylsilyl)ethyl]thio]propylamine] yielded an LD50 at 504 h [1] of 750 mg/kg, an inhibition in vivo at 250 mg/kg (B-16 melanoma) of 21.4% and an inhibition in vivo at 500 mg/kg (B-16 melanoma) of 50.6%.
For `CC(C)[Si](C)(C)CCSCCCNC(=O)n1cc(F)c(=O)[nH]c1=O` [compound 5, 1-[3-[[2-(Dimethylisopropylsilyl)ethyl]thio]-propylcarbamoyl]-5-fluorouracil], the LD50 at 504 h [1] was 2250 mg/kg, the inhibition in vivo at 338 mg/kg (colon-38 carcinoma; [2]) was 98.4% and the inhibition in vivo at 125 mg/kg (B-16 melanoma) was 17.6%. It also gave an inhibition in vivo at 250 mg/kg (B-16 melanoma) of 19.4%.
Compound `C[Si](C)(CCCSCCCNC(=O)n1cc(F)c(=O)[nH]c1=O)c1ccccc1` [compound 11, 1-{3-{[3-(Dimethylphenylsilyl)propyl]thio}-propylcarbamoyl}-5-fluorouracil] has an LD50 at 504 h [1] of 1800 mg/kg, an inhibition in vivo at 339 mg/kg (colon-38 carcinoma; Mus musculus, 672 h, 339 mg/kg/day x 3, oral at 1st, read-out: Inhibition Ratio (%)) of 97.9% and an inhibition in vivo at 125 mg/kg (B-16 melanoma) of 82.2%. The inhibition in vivo at 250 mg/kg (B-16 melanoma) was 70.5%.
Compound `CCCCCCCC[Si](C)(C)CCSCCNC(=O)n1cc(F)c(=O)[nH]c1=O` [Reference Example 1, 1-[2-[[2-dimethyl-n-octylsilylethyl)thio]ethylcarbamoyl]-5-fluorouracil] has an LD50 at 504 h [1] of 1580 mg/kg and an inhibition in vivo at 345 mg/kg (colon-38 carcinoma; Mus musculus, 672 h, 345 mg/kg/day x 3, oral at 1st, read-out: Inhibition Ratio (%)) of 80%.
`CC(C)[Si](C)(C)CCCSCCCNC(=O)n1cc(F)c(=O)[nH]c1=O` [compound 8, 1-{3-{[3-(Dimethylisopropylsilyl)propyl]thio}-propylcarbamoyl}-5-fluorouracil] gave an LD50 at 504 h [1] of 2120 mg/kg, an inhibition in vivo at 350 mg/kg (colon-38 carcinoma; Mus musculus, 672 h, 350 mg/kg/day x 3, oral at 1st, read-out: Inhibition Ratio (%)) of 90.3% and an inhibition in vivo at 125 mg/kg (B-16 melanoma) of 32.8%. It also gave an inhibition in vivo at 250 mg/kg (B-16 melanoma) of 45.7%.
`C[Si](C)(CCCSCCCN)c1ccccc1` [Example 11, 3[[3-(Dimethylphenylsilyl)propyl]thio]propylamine] showed an LD50 at 504 h [1] of over 1500 mg/kg, an inhibition in vivo at 250 mg/kg (B-16 melanoma) of 38.7% and an inhibition in vivo at 500 mg/kg (B-16 melanoma) of 45.4%.
`CCCC[Si](C)(C)CCCSCCCNC(=O)n1cc(F)c(=O)[nH]c1=O` [compound 10, 1-{3-{[3-(n-Butyldimethylsilyl)propyl]thio}-propylcarbamoyl}-5-fluorouracil] showed an LD50 at 504 h [1] of 1850 mg/kg, an inhibition in vivo at 323 mg/kg (colon-38 carcinoma; [2]) of 92.3% and an inhibition in vivo at 125 mg/kg (B-16 melanoma) of 69.5%. It also gave an inhibition in vivo at 250 mg/kg (B-16 melanoma) of 88.5%.
For `C[Si](CCSCCNC(=O)n1cc(F)c(=O)[nH]c1=O)(c1ccccc1)c1ccccc1` [compound 4, 1-[2-[[2-(Diphenylmethylsilyl)ethyl]thio]-ethylcarbamoyl]-5-fluorouracil], the LD50 at 504 h [1] was 1400 mg/kg and the “Inhibition Ratio (%)” value (colon-38 carcinoma; 366 mg/kg/day x 3, oral at 1st) was 32.2%.
Work on `CC(C)(C)[Si](C)(C)CCCSCCCN` [Example 9, 3-[[3-(t-Butyldimethylsilyl)propyl]thio)propylamine] yielded an LD50 at 504 h [1] of over 1500 mg/kg, an inhibition in vivo at 250 mg/kg (B-16 melanoma) of 57.3% and an inhibition in vivo at 500 mg/kg (B-16 melanoma) of 51.9%.
`CCCC[Si](C)(C)CCSCCN` [Example 3, 2-[[2-(n-Butyldimethylsilyl)ethyl]thio]ethylamine] gave an LD50 at 504 h [1] of over 1500 mg/kg.
In the case of `C[Si](CCSCCN)(c1ccccc1)c1ccccc1` [Example 4, 2-[[2-(Methyldiphenylsilyl)ethyl]thio)ethylamine], the LD50 at 504 h [1] is reported as over 1500 mg/kg.
For `CCCC[Si](C)(C)CCCSCCCN` [Example 10, 3-[[3-(n-Butyldimethylsilyl)propyl)thio)propylamine], the LD50 at 504 h [1] was over 1500 mg/kg, the inhibition in vivo at 250 mg/kg (B-16 melanoma) was 50.4% and the inhibition in vivo at 500 mg/kg (B-16 melanoma) was 29.8%.
Work on `CCCCCCCC[Si](C)(C)CCSCCN` [Example 1, 2-[[2-(Dimethyl-n-octylsilyl)ethyl]thio]ethylamine] yielded an LD50 at 504 h [1] of over 1500 mg/kg.
Work on `CC(C)(C)[Si](C)(C)CCCSCCCNC(=O)n1cc(F)c(=O)[nH]c1=O` [compound 9, 1-{3-{[3-(t-Butyldimethylsilyl)propyl]thio}-propylcarbamoyl}-5-fluorouracil] yielded an LD50 at 504 h [1] of 1800 mg/kg, an inhibition in vivo at 323 mg/kg (colon-38 carcinoma; [2]) of 90.1% and an inhibition in vivo at 125 mg/kg (B-16 melanoma) of 55.2%. For the same compound, the inhibition in vivo at 250 mg/kg (B-16 melanoma) was 46.3%.
In the case of `CC(C)(C)[Si](C)(C)CCCSCCN` [Example 7, 2[[3-(t-Butyldimethylsilyl)propyl]thio]ethylamine], the LD50 at 504 h [1] is reported as over 1500 mg/kg, the inhibition in vivo at 250 mg/kg (B-16 melanoma) is reported as 50% and the inhibition in vivo at 500 mg/kg (B-16 melanoma) is reported as 32.7%.
`CC(C)[Si](C)(C)CCSCCNC(=O)n1cc(F)c(=O)[nH]c1=O` [Reference Example 2, 1-[2-[[2-(Dimethylisopropylsilyl)ethyl]thio]-ethylcarbamoyl]-5-fluorouracil] showed an LD50 at 504 h [1] of 1380 mg/kg, an inhibition in vivo at 289 mg/kg (colon-38 carcinoma; Mus musculus, 672 h, 289 mg/kg/day x 3, oral at 1st, read-out: Inhibition Ratio (%)) of 89.8% and an inhibition in vivo at 300 mg/kg (B-16 melanoma; 300 mg/kg/day x 3, oral at 1st) of 79.7%.
For `CC(C)[Si](C)(C)CCSCCN` [Example 2, Z-([2-(Isopropyldimethylsilyl)ethyl]thio]ethylamine], the LD50 at 504 h [1] was 1620 mg/kg, the inhibition in vivo at 250 mg/kg (B-16 melanoma) was 23.8% and the inhibition in vivo at 500 mg/kg (B-16 melanoma) was 36.1%.
Compound `CCCC[Si](C)(C)CCSCCNC(=O)n1cc(F)c(=O)[nH]c1=O` [compound 3, 1-[2-[[2-(Dimethyl-n-butylsilyl)ethyl]thio]-ethylcarbamoyl]-5-fluorouracil] has an LD50 at 504 h [1] of 1380 mg/kg and an inhibition in vivo at 300 mg/kg (colon-38 carcinoma; Mus musculus, 672 h, 300 mg/kg/day x 3, oral at 1st, read-out: Inhibition Ratio (%)) of 81.2%.
Compound `CC(C)[Si](C)(C)CCCSCCCN` [Example 8, 3-[[3-(Isopropyldimethylsilyl)propyl]thio]propylamine] has an LD50 at 504 h [1] of over 1500 mg/kg, an inhibition in vivo at 250 mg/kg (B-16 melanoma) of 61.1% and an inhibition in vivo at 500 mg/kg (B-16 melanoma) of 46.3%.
For `CC(C)[Si](C)(C)CCCSCCNC(=O)n1cc(F)c(=O)[nH]c1=O` [compound 6, 1-[2-[[3-(Dimethylisopropylsilyl)propyl]thio]-ethylcarbamoyl]-5-fluorouracil], the LD50 at 504 h [1] was 1820 mg/kg and the inhibition in vivo at 338 mg/kg (colon-38 carcinoma; [2]) was 95.9%.
`CC(C)[Si](C)(C)CCCSCCN` [Example 6, Z-[[3-(Isopropyldimethylsilyl)propyl]thio]ethylamine] showed an LD50 at 504 h [1] of 1500 mg/kg.
